Data taken from publication PMC11329750 (Clinical and Translational Science, 2024).

Key:
[1] = 900 mg SJW of another brand; absence of autoinduction; cited from earlier work
CYP3A [2] = assay: Oral midazolam microdose; assay type: in vivo, human; settings: for F GMR: GMR (90% CI); for bioavailability: F (absolute bioavailability)
CYP3A [3] = settings: 900 mg SJW daily, same brand; cited from earlier work
CYP3A [4] = assay: Limited-sampling strategy; settings: human, in vivo, po, 30 ug
CYP3A [5] = assay: Intravenous midazolam microdose; assay type: in vivo, human
[6] = cited from earlier work
[7] = SJW 1800 + rifampin 600 for 7 days vs SJW 1800

Structure (SMILES): NC(=O)N1c2ccccc2C=Cc2ccccc21 [carbamazepine]
- reduction of exposure to single carbamazepine doses [1]: 21%

Structure (SMILES): Cc1ncc2n1-c1ccc(Cl)cc1C(c1ccccc1F)=NC2 [midazolam]
- F GMR (CYP3A [2]; 30 μg midazolam orally, SJW 1800 + rifampin 600 vs baseline): 0.2070 (0.1704–0.2516)
- F GMR (CYP3A [2]; 30 μg midazolam orally, SJW 1800 vs baseline): 0.4437 (0.3735–0.5271)
- CL/F (CYP3A [2]; 30 μg midazolam orally, baseline, GM (95% CI)): 1649 (1290–2109) mL min^−1
- further increase of midazolam CL orally (CYP3A [2]; [7]): 3.06 fold
- AUC(0-inf) (CYP3A [2]; human, plasma, po, 30 ug): 0.303 ng·h/mL
- AUC(0-t) (CYP3A [2]; human, plasma, po, 30 ug): 0.258 ng·h/mL
- Cmax (CYP3A [2]; human, plasma, po, 30 ug): 0.139 ng/mL
- Vd/F (CYP3A [2]; human, plasma, po, 30 ug): 422 L
- bioavailability (CYP3A [2]; human, plasma, po, 30 ug, 30 μg midazolam orally, SJW 1800 mg/day for 14 days, GM (95% CI)): 15.6%
- bioavailability (CYP3A [2]; human, plasma, po, 30 ug, 30 μg midazolam orally, baseline, GM (95% CI)): 35.1%
- fold increase of midazolam clearance with a regular midazolam dose (CYP3A [3]): 4.22
- AUC (CYP3A [4]): 0.0657 ng·h/mL
- further increase of midazolam CL i.v. (CYP3A [5]; [7]): 1.43 fold
- AUC(0-inf) (CYP3A [5]; human, plasma, intravenous, 10 ug): 0.287 ng·h/mL
- AUC(0-inf) (CYP3A [5]; human, plasma, iv, 10 ug): 0.334 ng·h/mL
- Vd (CYP3A [5]; human, plasma, iv, 10 ug): 148 L
- half-life (CYP3A [5]; human, plasma, iv, 10 ug): 2.97 h

Structure (SMILES): CO[C@H]1/C=C/O[C@@]2(C)Oc3c(C)c(O)c4c(O)c(c(/C=N/N5CCN(C)CC5)c(O)c4c3C2=O)NC(=O)/C(C)=C\C=C\[C@H](C)[C@H](O)[C@@H](C)[C@@H](O)[C@@H](C)[C@H](OC(C)=O)[C@@H]1C [rifampin]
- daily doses at which maximum induction is already reached [6]: 300 to 600 mg
